# Experimental data as given in patent USRE48461E1, “Modulation of androgen receptor expression” (Ionis Pharmaceuticals, Inc., priority 2012, dated 2021).
# Oligonucleotides are written 5' to 3', each unit as a sugar letter and its base; * is a phosphorothioate linkage, no mark a phosphodiester; rarer units and linkages stand in square brackets, end groups in braces. Plain capitals give the bases only. k = constrained ethyl (cEt); [5mC] = 5-methylcytosine; d = 2'-deoxy (DNA)
# Legend:
# AR mRNA [1] = experiment: Antisense inhibition of human AR in HuVEC cells, single concentration (electroporation, qRT-PCR RTS3559); type: cell-based
# In short: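 HuVEC cells electroporated with antisense oligonucleotides at a single concentration. AR mRNA quantified by qRT-PCR using human primer-probe set RTS3559 and normalised to total RNA content by RIBOGREEN.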
# AR mRNA [2] = experiment: Dose-dependent antisense inhibition of human AR in HuVEC cells (electroporation, qRT-PCR RTS3559, IC50); type: cell-based; conditions: for inhibition of AR mRNA at 46.9 nM: 46.9 nM ASO; for inhibition of AR mRNA at 187.5 nM: 187.5 nM ASO; for inhibition of AR mRNA at 750.0 nM: 750.0 nM ASO; for inhibition of AR mRNA at 3000.0 nM: 3000.0 nM ASO
# In short: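 HuVEC cells dosed with antisense oligonucleotides by electroporation and treated approximately 16 hours. AR mRNA quantified by real-time qPCR with primer probe set RTS3559 and normalised to total RNA by RIBOGREEN; IC50 from dose-response.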
# [3] = Table 25, 1,000 nM oligonucleotide, electroporation, approximately 24 hours, relative to untreated control
# [4] = Table 36, 46.9 nM, HuVEC, electroporation, approximately 16 hours
# [5] = Table 36, 187.5 nM, HuVEC, electroporation, approximately 16 hours
# [6] = Table 36, 750.0 nM, HuVEC, electroporation, approximately 16 hours
# [7] = Table 36, 3000.0 nM, HuVEC, electroporation, approximately 16 hours
# [8] = Table 36, HuVEC, electroporation, approximately 16 hours
# [9] = Table 27, 1,000 nM oligonucleotide, electroporation, approximately 24 hours, relative to untreated control
# [10] = Table 28, 1,000 nM oligonucleotide, electroporation, approximately 24 hours, relative to untreated control
# [11] = 46.9 nM, HuVEC, ~16 h, Table 15
# [12] = 187.5 nM, HuVEC, ~16 h, Table 15
# [13] = 750.0 nM, HuVEC, ~16 h, Table 15
# [14] = 3000.0 nM, HuVEC, ~16 h, Table 15
substance,measurement,setting,value
584245 (kA*kG*kG*dT*dT*dA*dG*dG*dG*dA*dG*dT*dA*kG*kG*k[5mC]; antisense) [compound 584245],% inhibition,AR mRNA [1]; [3],70%
same,"percent inhibition of AR, 46.9 nM",AR mRNA [2]; [4],4%
same,"percent inhibition of AR, 187.5 nM",AR mRNA [2]; [5],33%
same,"percent inhibition of AR, 750.0 nM",AR mRNA [2]; [6],69%
same,"percent inhibition of AR, 3000.0 nM",AR mRNA [2]; [7],90%
same,IC50,AR mRNA [2]; [8],320 nM
584263 (kT*kA*kG*dG*dG*dT*dT*dT*dG*dG*dT*d[5mC]*dA*kG*kA*kA; antisense) [compound 584263],% inhibition,AR mRNA [1]; [3],56%
same,"percent inhibition of AR, 46.9 nM",AR mRNA [2]; [4],9%
same,"percent inhibition of AR, 187.5 nM",AR mRNA [2]; [5],24%
same,"percent inhibition of AR, 750.0 nM",AR mRNA [2]; [6],67%
same,"percent inhibition of AR, 3000.0 nM",AR mRNA [2]; [7],90%
same,IC50,AR mRNA [2]; [8],340 nM
584274 (kG*kT*kT*dA*dT*d[5mC]*dT*dT*dA*d[5mC]*dT*d[5mC]*dT*k[5mC]*k[5mC]*k[5mC]; antisense) [compound 584274],% inhibition,AR mRNA [1]; [3],70%
same,"percent inhibition of AR, 46.9 nM",AR mRNA [2]; [4],17%
same,"percent inhibition of AR, 187.5 nM",AR mRNA [2]; [5],36%
same,"percent inhibition of AR, 750.0 nM",AR mRNA [2]; [6],74%
same,"percent inhibition of AR, 3000.0 nM",AR mRNA [2]; [7],93%
same,IC50,AR mRNA [2]; [8],230 nM
584329 (kG*kG*kT*dT*dA*dT*dG*dG*dT*dT*d[5mC]*dT*dG*kT*k[5mC]*kT; antisense) [compound 584329],% inhibition,"AR mRNA [1]; 1,000 nM ASO, ~24 h, Table 26",58%
same,"percent inhibition of AR, 46.9 nM",AR mRNA [2]; [4],0%
same,"percent inhibition of AR, 187.5 nM",AR mRNA [2]; [5],17%
same,"percent inhibition of AR, 750.0 nM",AR mRNA [2]; [6],67%
same,"percent inhibition of AR, 3000.0 nM",AR mRNA [2]; [7],86%
same,IC50,AR mRNA [2]; [8],460 nM
584361 (k[5mC]*kT*kT*d[5mC]*dA*dT*dT*dG*d[5mC]*dA*dG*dG*dT*k[5mC]*kT*kG; antisense) [compound 584361],% inhibition,"AR mRNA [1]; 1,000 nM ASO, ~24 h, Table 26",61%
same,"percent inhibition of AR, 46.9 nM",AR mRNA [2]; [4],0%
same,"percent inhibition of AR, 187.5 nM",AR mRNA [2]; [5],18%
same,"percent inhibition of AR, 750.0 nM",AR mRNA [2]; [6],71%
same,"percent inhibition of AR, 3000.0 nM",AR mRNA [2]; [7],87%
same,IC50,AR mRNA [2]; [8],410 nM
584469 (kT*kT*kT*dG*dG*dT*dA*dA*d[5mC]*dA*dT*dT*dA*kG*kG*k[5mC]; antisense) [compound 584469],% inhibition,AR mRNA [1]; [9],74%
same,% inhibition,AR mRNA [1]; [10],63%
same,"percent inhibition of AR, 46.9 nM",AR mRNA [2]; [4],13%
same,"percent inhibition of AR, 187.5 nM",AR mRNA [2]; [5],46%
same,"percent inhibition of AR, 750.0 nM",AR mRNA [2]; [6],73%
same,"percent inhibition of AR, 3000.0 nM",AR mRNA [2]; [7],89%
same,IC50,AR mRNA [2]; [8],220 nM
584495 (kA*kT*kG*dG*dT*dT*dG*dT*d[5mC]*d[5mC]*dT*dG*dT*kA*k[5mC]*kA; antisense) [compound 584495],% inhibition,AR mRNA [1]; [9],58%
same,% inhibition,AR mRNA [1]; [10],53%
same,"percent inhibition of AR, 46.9 nM",AR mRNA [2]; [4],0%
same,"percent inhibition of AR, 187.5 nM",AR mRNA [2]; [5],14%
same,"percent inhibition of AR, 750.0 nM",AR mRNA [2]; [6],55%
same,"percent inhibition of AR, 3000.0 nM",AR mRNA [2]; [7],74%
same,IC50,AR mRNA [2]; [8],650 nM
586224 (kT*kT*kG*kA*kT*dT*dT*dA*dA*dT*dG*dG*dT*kT*kG*k[5mC]; antisense) [compound 586224],% inhibition,"AR mRNA [1]; 1,000 nM ASO, ~24 h, Table 13",90%
same,percent inhibition of AR,AR mRNA [2]; [11],39%
same,percent inhibition of AR,AR mRNA [2]; [12],75%
same,percent inhibition of AR,AR mRNA [2]; [13],93%
same,percent inhibition of AR,AR mRNA [2]; [14],98%
same,IC50,"AR mRNA [2]; HuVEC cells, electroporation",50 nM
same,inhibition of AR mRNA at 46.9 nM,"AR mRNA [2]; HuVEC cells, electroporation",39%
same,inhibition of AR mRNA at 187.5 nM,"AR mRNA [2]; HuVEC cells, electroporation",75%
same,inhibition of AR mRNA at 750.0 nM,"AR mRNA [2]; HuVEC cells, electroporation",93%
same,inhibition of AR mRNA at 3000.0 nM,"AR mRNA [2]; HuVEC cells, electroporation",98%
same,IC50,"AR mRNA [2]; HuVEC, ~16 h, Table 15",50 nM
586225 (kG*kT*kT*kG*kA*dT*dT*dT*dA*dA*dT*dG*dG*kT*kT*kG; antisense) [compound 586225],% inhibition,"AR mRNA [1]; 1,000 nM ASO, ~24 h, Table 13",88%
same,percent inhibition of AR,AR mRNA [2]; [11],17%
same,percent inhibition of AR,AR mRNA [2]; [12],61%
same,percent inhibition of AR,AR mRNA [2]; [13],89%
same,percent inhibition of AR,AR mRNA [2]; [14],97%
same,IC50,"AR mRNA [2]; HuVEC cells, electroporation",130 nM
same,inhibition of AR mRNA at 46.9 nM,"AR mRNA [2]; HuVEC cells, electroporation",17%
same,inhibition of AR mRNA at 187.5 nM,"AR mRNA [2]; HuVEC cells, electroporation",61%
same,inhibition of AR mRNA at 750.0 nM,"AR mRNA [2]; HuVEC cells, electroporation",89%
same,inhibition of AR mRNA at 3000.0 nM,"AR mRNA [2]; HuVEC cells, electroporation",97%
same,IC50,"AR mRNA [2]; HuVEC, ~16 h, Table 15",130 nM
